Data set [1] can be described thus: ASSAY (III) ThT fibrillation assay for physical stability. The data set is classed as physicochemical. Summed up:
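Formulations with 1 μM ThT, pH adjusted as required, incubated at 37 °C with 960 rpm orbital shaking; fluorescence (ex 444/em 485 nm) read every 20 min. Fibrillation reported as mean ThT fluorescence ± SD of 4–8 replicates at time points; polypeptide concentration measured by reverse-phase HPLC before and after, post-centrifugation.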

In data set [2] the target is T1, rat amylin receptor (rat calcitonin receptor + rat RAMP 3) (Rattus norvegicus, UniProt P32214+Q9JJ73).
T1 construct: expressed in transfected cells; host or cells: BHK tk'ts 13 (transient, FuGENE 6), membranes
T1 sequence (P32214 25-479 isoform P32214-2 limits assumed): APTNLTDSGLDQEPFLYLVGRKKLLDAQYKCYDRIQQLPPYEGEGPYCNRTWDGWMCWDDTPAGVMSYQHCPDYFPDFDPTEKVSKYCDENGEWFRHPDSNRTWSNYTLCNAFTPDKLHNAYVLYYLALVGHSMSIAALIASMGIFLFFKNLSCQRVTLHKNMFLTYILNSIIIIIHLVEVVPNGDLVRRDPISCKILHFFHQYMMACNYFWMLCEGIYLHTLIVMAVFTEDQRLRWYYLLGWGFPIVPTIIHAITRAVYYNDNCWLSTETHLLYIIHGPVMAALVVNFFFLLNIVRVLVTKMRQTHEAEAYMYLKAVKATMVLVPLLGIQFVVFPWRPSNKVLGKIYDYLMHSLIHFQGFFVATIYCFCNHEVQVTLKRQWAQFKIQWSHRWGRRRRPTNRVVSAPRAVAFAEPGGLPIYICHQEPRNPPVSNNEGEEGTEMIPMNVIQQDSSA
T1 sequence (Q9JJ73 23-147 partner): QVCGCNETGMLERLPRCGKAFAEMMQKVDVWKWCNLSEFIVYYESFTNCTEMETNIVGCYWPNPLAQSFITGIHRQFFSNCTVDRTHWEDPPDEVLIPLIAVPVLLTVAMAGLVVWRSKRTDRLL
Briefly: ASSAY (VI) binding to the rat amylin receptor. As to conditions: for IC50: binding to rat amylin receptor, read-out: rAmylin-R bind IC50. An outline of the steps: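 This assay measured binding to the rat amylin receptor. BHK tk′ts 13 cells were transiently transfected with the rat calcitonin receptor using FuGENE® 6 (Roche), following the manufacturer's recommendations. About 48 hours after transfection, the cells were harvested and membranes were prepared from them for the binding determination.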

The mark [3] stands for this setting: Table 7, rat binding selectivity, rCTR IC50 / rAmylin-R IC50.
The mark [4] stands for this setting: Table 7a (preferred compounds), rat binding selectivity, rCTR IC50 / rAmylin-R IC50.
Setting [5] is: ratio of rCTR bind IC50 to rAmylin-R bind IC50.

This is an account of results in patent US9023789B2, “Amylin analogs and pharmaceutical compositions thereof” (Novo Nordisk A/S, priority 2012, dated 2015).

Numbered stars: 1 amine (or outer) side, 2 acyl side, 3 side chain; on linkers, the order of the positions; unused ones are H or OH. Bridge positions count the residues as written; N and C are the ends. Side chains are listed from the residue outwards. Peptide text beside a SMILES is read from it. * marks the point of attachment. C20 diacid = O=C(O)CCCCCCCCCCCCCCCCCCC(=O)*; γGlu = O=C(O)[C@H](CCC(=O)[*:2])N[*:1]

As for `CC[C@H](C)[C@H](NC(=O)[C@H](C)NC(=O)CNC(=O)[C@H](Cc1ccccc1)NC(=O)[C@H](CC(N)=O)NC(=O)[C@@H]1CCCN1C(=O)[C@H](CO)NC(=O)[C@H](CO)NC(=O)[C@H](Cc1c[nH]cn1)NC(=O)[C@H](CCCNC(=N)N)NC(=O)[C@H](CC(C)C)NC(=O)[C@H](Cc1ccccc1)NC(=O)[C@H](CCC(=O)O)NC(=O)[C@H](C)NC(=O)[C@H](CC(C)C)NC(=O)[C@H](CCCNC(=N)N)NC(=O)[C@H](CCC(N)=O)NC(=O)[C@@H](NC(=O)[C@H](C)NC(=O)[C@@H]1CSSC[C@H](NC(=O)[C@@H](N)CCCCNC(=O)CC[C@H](NC(=O)CCCCCCCCCCCCCCCCCCC(=O)O)C(=O)O)C(=O)N[C@@H](CC(N)=O)C(=O)N[C@@H]([C@@H](C)O)C(=O)N[C@@H](C)C(=O)N[C@@H]([C@@H](C)O)C(=O)N1)[C@@H](C)O)C(=O)N1CCC[C@H]1C(=O)N[C@@H](CO)C(=O)N[C@@H](CO)C(=O)N[C@H](C(=O)N[C@@H](CC(N)=O)C(=O)N[C@H](C(=O)NCC(=O)N[C@@H](CO)C(=O)N[C@@H](CCCNC(=N)N)C(=O)N[C@H](C(=O)N[C@@H](Cc1ccc(O)cc1)C(N)=O)[C@@H](C)O)C(C)C)[C@@H](C)O` [Example 51] (H-K([γGlu-C20 diacid])CNTATCATQRLAEFLRHSSPNFGAIPSSTNVGSRTY-NH2; disulfide 2-7 (inferred); N-terminus assumed), the “ThT pH 4.0 lag time (h)” value in data set [1] was determined as 7 h. In addition, in data set [2] (Table 7), the IC50 stood at 0.523 nM. In addition, the “Ratio rCT/rAmylin binding” value in data set [2] (setting [3]), in data set [2] (setting [4]) and in data set [2] (setting [5]) was 118.6 in each case.
Take `CC[C@H](C)[C@H](NC(=O)[C@H](C)NC(=O)CNC(=O)[C@H](Cc1ccccc1)NC(=O)[C@H](CC(N)=O)NC(=O)[C@@H]1CCCN1C(=O)[C@H](CO)NC(=O)[C@H](CO)NC(=O)[C@H](Cc1c[nH]cn1)NC(=O)[C@H](CCCNC(=N)N)NC(=O)[C@H](CC(C)C)NC(=O)[C@H](Cc1ccccc1)NC(=O)[C@H](CC(N)=O)NC(=O)[C@H](C)NC(=O)[C@H](CC(C)C)NC(=O)[C@H](CCCNC(=N)N)NC(=O)[C@H](CCC(N)=O)NC(=O)[C@@H](NC(=O)[C@H](C)NC(=O)[C@@H]1CSSC[C@H](NC(=O)[C@@H](N)CCCCNC(=O)CC[C@H](NC(=O)CCCCCCCCCCCCCCCCCCC(=O)O)C(=O)O)C(=O)N[C@@H](CC(N)=O)C(=O)N[C@@H]([C@@H](C)O)C(=O)N[C@@H](C)C(=O)N[C@@H]([C@@H](C)O)C(=O)N1)[C@@H](C)O)C(=O)N1CCC[C@H]1C(=O)N[C@@H](CO)C(=O)N[C@@H](CO)C(=O)N[C@H](C(=O)N[C@@H](CC(N)=O)C(=O)N[C@H](C(=O)NCC(=O)N[C@@H](CO)C(=O)N[C@@H](CCCCN)C(=O)N[C@H](C(=O)N[C@@H](Cc1ccc(O)cc1)C(N)=O)[C@@H](C)O)C(C)C)[C@@H](C)O` [Example 35] (H-K([γGlu-C20 diacid])CNTATCATQRLANFLRHSSPNFGAIPSSTNVGSKTY-NH2; disulfide 2-7; N-terminus assumed): in data set [1], the “ThT pH 4.0 lag time (h)” value is 45 h. Further, the IC50 in data set [2] (Table 7) was found to be 0.948 nM. Also, the “Ratio rCT/rAmylin binding” value in data set [2] (setting [3]), in data set [2] (setting [4]) and in data set [2] (setting [5]) was 65.1 in each case.
For `CC[C@H](C)[C@H](NC(=O)[C@H](C)NC(=O)CNC(=O)[C@H](Cc1ccccc1)NC(=O)[C@H](CC(N)=O)NC(=O)[C@@H]1CCCN1C(=O)[C@H](CO)NC(=O)[C@H](CO)NC(=O)[C@H](Cc1c[nH]cn1)NC(=O)[C@H](CCCNC(=N)N)NC(=O)[C@H](CC(C)C)NC(=O)[C@H](Cc1ccccc1)NC(=O)[C@H](CCC(=O)O)NC(=O)[C@H](C)NC(=O)[C@H](CC(C)C)NC(=O)[C@H](CCCNC(=N)N)NC(=O)[C@H](CCC(N)=O)NC(=O)[C@@H](NC(=O)[C@H](C)NC(=O)[C@@H]1CSSC[C@H](NC(=O)[C@H](CCCCN)NC(=O)COCCOCCNC(=O)COCCOCCNC(=O)CC[C@H](NC(=O)CCCCCCCCCCCCCCCCCCC(=O)O)C(=O)O)C(=O)N[C@@H](CC(N)=O)C(=O)N[C@@H]([C@@H](C)O)C(=O)N[C@@H](C)C(=O)N[C@@H]([C@@H](C)O)C(=O)N1)[C@@H](C)O)C(=O)N1CCC[C@H]1C(=O)N[C@@H](CO)C(=O)N[C@@H](CO)C(=O)N[C@H](C(=O)N[C@@H](CC(N)=O)C(=O)N[C@H](C(=O)NCC(=O)N[C@@H](CO)C(=O)N[C@@H](CC(N)=O)C(=O)N[C@H](C(=O)N[C@@H](Cc1ccc(O)cc1)C(N)=O)[C@@H](C)O)C(C)C)[C@@H](C)O` [Example 19], in data set [1], the “ThT pH 4.0 lag time (h)” value was 9 h. Also, the IC50 in data set [2] (Table 7) amounted to 1.02 nM. In addition, the “Ratio rCT/rAmylin binding” value in data set [2] (setting [3]), in data set [2] (setting [4]) and in data set [2] (setting [5]) was 93.6 each time.
For the compound `CC[C@H](C)[C@H](NC(=O)[C@H](C)NC(=O)CNC(=O)[C@H](Cc1ccccc1)NC(=O)[C@H](CC(N)=O)NC(=O)[C@@H]1CCCN1C(=O)[C@H](CO)NC(=O)[C@H](CO)NC(=O)[C@H](Cc1c[nH]cn1)NC(=O)[C@H](CCCNC(=N)N)NC(=O)[C@H](CC(C)C)NC(=O)[C@H](Cc1ccccc1)NC(=O)[C@H](CO)NC(=O)[C@H](C)NC(=O)[C@H](CC(C)C)NC(=O)[C@H](CCCNC(=N)N)NC(=O)[C@H](CCC(N)=O)NC(=O)[C@@H](NC(=O)[C@H](C)NC(=O)[C@@H]1CSSC[C@H](NC(=O)[C@@H](N)CCCCNC(=O)CC[C@H](NC(=O)CC[C@H](NC(=O)CCCCCCCCCCCCCCCCCCC(=O)O)C(=O)O)C(=O)O)C(=O)N[C@@H](CC(N)=O)C(=O)N[C@@H]([C@@H](C)O)C(=O)N[C@@H](C)C(=O)N[C@@H]([C@@H](C)O)C(=O)N1)[C@@H](C)O)C(=O)N1CCC[C@H]1C(=O)N[C@@H](CO)C(=O)N[C@@H](CO)C(=O)N[C@H](C(=O)N[C@@H](CC(N)=O)C(=O)N[C@H](C(=O)NCC(=O)N1CCC[C@H]1C(=O)N[C@@H](CCC(=O)O)C(=O)N[C@H](C(=O)N[C@@H](Cc1ccc(O)cc1)C(N)=O)[C@@H](C)O)C(C)C)[C@@H](C)O` [Example 120] (H-K([γGlu-γGlu-C20 diacid])CNTATCATQRLASFLRHSSPNFGAIPSSTNVGPETY-NH2; disulfide 2-7 (inferred); N-terminus assumed), the “ThT pH 4.0 lag time (h)” value in data set [1] is 14 h. In addition, in data set [2] (Table 7), the IC50 stood at 0.161 nM. In addition, the “Ratio rCT/rAmylin binding” value in data set [2] (setting [3]), in data set [2] (setting [4]) and in data set [2] (setting [5]) was 867.7 throughout.
As for `CC[C@H](C)[C@H](NC(=O)[C@H](C)NC(=O)CNC(=O)[C@H](Cc1ccccc1)NC(=O)[C@H](CC(N)=O)NC(=O)[C@@H]1CCCN1C(=O)[C@H](CO)NC(=O)[C@H](CO)NC(=O)[C@H](Cc1c[nH]cn1)NC(=O)[C@H](CCCNC(=N)N)NC(=O)[C@H](CC(C)C)NC(=O)[C@H](Cc1ccccc1)NC(=O)[C@H](CC(N)=O)NC(=O)[C@H](C)NC(=O)[C@H](CC(C)C)NC(=O)[C@H](CCCNC(=N)N)NC(=O)[C@H](CCC(N)=O)NC(=O)[C@@H](NC(=O)[C@H](C)NC(=O)[C@@H]1CSSC[C@H](NC(=O)[C@H](CCCCN)NC(=O)CC[C@H](NC(=O)CCCCCCCCCCCCCCCCCCC(=O)O)C(=O)O)C(=O)N[C@@H](CC(N)=O)C(=O)N[C@@H]([C@@H](C)O)C(=O)N[C@@H](C)C(=O)N[C@@H]([C@@H](C)O)C(=O)N1)[C@@H](C)O)C(=O)N1CCC[C@H]1C(=O)N[C@@H](CO)C(=O)N[C@@H](CO)C(=O)N[C@H](C(=O)N[C@@H](CC(N)=O)C(=O)N[C@H](C(=O)NCC(=O)N[C@@H](Cc1c[nH]cn1)C(=O)N[C@@H](CC(N)=O)C(=O)N[C@H](C(=O)N[C@@H](Cc1ccc(O)cc1)C(N)=O)[C@@H](C)O)C(C)C)[C@@H](C)O` [Example 40], the “ThT pH 4.0 lag time (h)” value in data set [1] was found to be 26 h. In data set [2] (Table 7), the IC50 was found to be 1.5 nM. In addition, the “Ratio rCT/rAmylin binding” value in data set [2] (setting [3]), in data set [2] (setting [4]) and in data set [2] (setting [5]) was 46.2 each time.

One may read the IC50 as the concentration at which inhibition is half-maximal.
